Legend:
MHC-II DRB1*15:01 [1] = molecular target: T1, MHC-II DRB1*15:01 (Homo sapiens, UniProt P01903+P01911); test: Cell-free REVEAL class II stability assay; conditions: half-life of peptide-MHC-II complex (h, capped at 120) x Binding Score / 100, conformational ELISA
T1 construct: purchased ProImmune
Procedure: (§1) We measured the half-life of each peptide-MHC-II complex using REVEAL peptide-MHC affinity assays developed by ProImmune Ltd. (Oxford, UK). On-rates of peptides were measured over a 96-hr period at 10°C. A unique positive control peptide was used for each MHC-II allele. Samples of assembling peptide-MHC complexes were taken at defined time points and snap-frozen in liquid nitrogen prior to analysis. Assembly of peptide-MHC complexes was detected using a conformational ELISA involving an anti-HLA antibody. On-rates were calculated by fitting data to a one-phase association curve: [drawing 1] To determine the off-rates of the peptides, samples of dissociating complexes were taken at defined time points and frozen in liquid nitrogen prior to analysis. Percent denaturation of peptide-MHC complexes was also detected using a conformational ELISA. Off-rates were calculated by fitting data to a one-phase dissociation curve: [drawing 2] On- and off-rate half-life values (t1/2) were calculated from the rate constant (k) using the following equation: [drawing 3] To obtain a normalized stability score, the half-life values were multiplied by the Binding Score (see above) and divided by 100.

MHC-II DRB1*04:01 [2] = molecular target: T2, MHC-II DRB1*04:01 (Homo sapiens, UniProt P01903+P01911, A100K/A169T/F76Y/I96L/K127E/L162R/M171V/N62H/P40V/Q125Y/R42H/S133A/S149N/S66Y/V115G/V209L/W38E); test: Cell-free REVEAL class II stability assay; conditions: half-life of peptide-MHC-II complex (h, capped at 120) x Binding Score / 100, conformational ELISA
Procedure: as §1

MHC-II DRB1*15:03 [3] = molecular target: T3, MHC-II DRB1*15:03 (Homo sapiens, UniProt P01903+P01911, Y59H); test: Cell-free REVEAL class II stability assay; conditions: half-life of peptide-MHC-II complex (h, capped at 120) x Binding Score / 100, conformational ELISA
T3 construct: purchased ProImmune
Procedure: as §1

MHC-II DRB1*03:01 [4] = molecular target: T4, MHC-II DRB1*03:01 (Homo sapiens, UniProt P01903+P01911, A100K/A102G/A103R/A169T/F55Y/I96L/K41T/L162R/M171V/P40S/Q125H/Q178H/Q39Y/R42S/S66N/T106N/T262R/W38E/Y61H); test: Cell-free REVEAL class II stability assay; conditions: half-life of peptide-MHC-II complex (h, capped at 120) x Binding Score / 100, conformational ELISA
Procedure: as §1

MHC-II DRB1*11:01 [5] = molecular target: T5, MHC-II DRB1*11:01 (Homo sapiens, UniProt P01903+P01911, A100R/A169T/A87E/I96F/K41T/L162R/M171V/P40S/Q125H/Q178H/Q39Y/Q99D/R42S/S66Y/T262R/V115G/W38E); test: Cell-free REVEAL class II stability assay; conditions: half-life of peptide-MHC-II complex (h, capped at 120) x Binding Score / 100, conformational ELISA
Procedure: as §1

MHC-II DRB1*07:01 [6] = molecular target: T6, MHC-II DRB1*07:01 (Homo sapiens, UniProt P01903+P01911, A100R/A102G/A103Q/D57E/D86V/E43K/F76Y/K127E/L162R/M171V/P40G/Q125H/Q99D/R33Q/R42Y/R54Q/S133A/S66F/T210M/V115G/Y107V/Y59L/Y89S); test: Cell-free REVEAL class II stability assay; conditions: half-life of peptide-MHC-II complex (h, capped at 120) x Binding Score / 100, conformational ELISA
Procedure: as §1

MHC-II DRB1*15:01 [7] = molecular target: T1, MHC-II DRB1*15:01; test: Cell-free REVEAL class II binding assay; conditions: signal of test peptide as percentage of allele-specific positive control peptide, fluorescence, conformation-specific monoclonal antibody
From the text: (§2) We used a proprietary high throughput, REVEAL binding assay (ProImmune, www.proimmune.com) to estimate the binding of individual test peptides to the following MHC-II variants: DRB1*03:01, DRB1*04:01, DRB1*07:01, DRB1*11:01, DRB1*15:01 and DRB1*15:03 [28]. Detection of a peptide binding to each MHC-II protein is based on the presence or absence of the native conformation of the MHC-peptide complex. The peptide-MHC-II complex is detected by an increase in a fluorescence signal due to the binding of a specific monoclonal antibody. Each test-peptide is given a score relative to a positive control peptide, which is a known T-cell epitope for that MHC-II molecule. The score is reported quantitatively as a percentage of the signal generated by the test peptide compared with the positive control peptide. Assay performance is evaluated by including in each set of measurements an intermediate control peptide which is known to bind the MHC-II molecule but with a lower affinity than the positive control peptide. Note that the positive control peptide used to determine the binding score is different from the positive control peptides depicted in the figures, which are known T-cell epitopes identified in the FVIII molecule.

MHC-II DRB1*04:01 [8] = molecular target: T2, MHC-II DRB1*04:01; test: Cell-free REVEAL class II binding assay; conditions: signal of test peptide as percentage of allele-specific positive control peptide, fluorescence, conformation-specific monoclonal antibody
From the text: as §2

MHC-II DRB1*15:03 [9] = molecular target: T3, MHC-II DRB1*15:03; test: Cell-free REVEAL class II binding assay; conditions: signal of test peptide as percentage of allele-specific positive control peptide, fluorescence, conformation-specific monoclonal antibody
From the text: as §2

MHC-II DRB1*03:01 [10] = molecular target: T4, MHC-II DRB1*03:01; test: Cell-free REVEAL class II binding assay; conditions: signal of test peptide as percentage of allele-specific positive control peptide, fluorescence, conformation-specific monoclonal antibody
From the text: as §2

MHC-II DRB1*11:01 [11] = molecular target: T5, MHC-II DRB1*11:01; test: Cell-free REVEAL class II binding assay; conditions: signal of test peptide as percentage of allele-specific positive control peptide, fluorescence, conformation-specific monoclonal antibody
From the text: as §2

MHC-II DRB1*07:01 [12] = molecular target: T6, MHC-II DRB1*07:01; test: Cell-free REVEAL class II binding assay; conditions: signal of test peptide as percentage of allele-specific positive control peptide, fluorescence, conformation-specific monoclonal antibody
From the text: as §2

T5 sequence (P01903 26-254 limits assumed, other chains not shown): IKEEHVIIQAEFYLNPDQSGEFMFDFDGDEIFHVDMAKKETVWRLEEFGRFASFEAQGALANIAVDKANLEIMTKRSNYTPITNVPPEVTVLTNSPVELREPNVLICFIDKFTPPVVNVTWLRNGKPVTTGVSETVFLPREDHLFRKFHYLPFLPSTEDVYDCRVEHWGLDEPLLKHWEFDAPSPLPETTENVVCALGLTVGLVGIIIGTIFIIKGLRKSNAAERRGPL
T4 sequence (P01903 26-254 limits assumed, other chains not shown): as above
T3 sequence (P01903 26-254, other chains not shown): as the sequence (P01903 26-254 limits assumed, other chains not shown) above

## GPTKSDPRCLTRYYS [synthetic wild type FVIII 15 mer peptide]
MHC-II DRB1*15:01 [1]
  Stability Index: 7.2
MHC-II DRB1*04:01 [2]
  Stability Index: 0.1
MHC-II DRB1*15:03 [3]
  Stability Index: 0.0
MHC-II DRB1*03:01 [4]
  Stability Index: 1.6
MHC-II DRB1*11:01 [5]
  Stability Index: 0.0
MHC-II DRB1*07:01 [6]
  Stability Index: 0.0
MHC-II DRB1*15:01 [7]
  Binding Score: 63.6%
MHC-II DRB1*04:01 [8]
  Binding Score: 0.5%
MHC-II DRB1*15:03 [9]
  Binding Score: 3.8%
MHC-II DRB1*03:01 [10]
  Binding Score: 4.8%
MHC-II DRB1*11:01 [11]
  Binding Score: 1.2%
MHC-II DRB1*07:01 [12]
  Binding Score: 0.0%

## HKMVYEDTLTLFPFS [synthetic wild type FVIII 15 mer peptide]
MHC-II DRB1*15:01 [1]
  Stability Index: 2.9
MHC-II DRB1*04:01 [2]
  Stability Index: 5.5
MHC-II DRB1*15:03 [3]
  Stability Index: 0.1
MHC-II DRB1*03:01 [4]
  Stability Index: 14.2
MHC-II DRB1*11:01 [5]
  Stability Index: 0.2
MHC-II DRB1*07:01 [6]
  Stability Index: 0.0
MHC-II DRB1*15:01 [7]
  Binding Score: 2.4%
MHC-II DRB1*04:01 [8]
  Binding Score: 24.2%
MHC-II DRB1*15:03 [9]
  Binding Score: 0.1%
MHC-II DRB1*03:01 [10]
  Binding Score: 56.5%
MHC-II DRB1*11:01 [11]
  Binding Score: 5.4%
MHC-II DRB1*07:01 [12]
  Binding Score: 0.0%

## IARYIRLHPTHYSIR [synthetic wild type FVIII 15 mer peptide]
MHC-II DRB1*15:01 [1]
  Stability Index: 4055.5
MHC-II DRB1*04:01 [2]
  Stability Index: 38.8
MHC-II DRB1*15:03 [3]
  Stability Index: 124.6
MHC-II DRB1*03:01 [4]
  Stability Index: 0.0
MHC-II DRB1*11:01 [5]
  Stability Index: 36.2
MHC-II DRB1*07:01 [6]
  Stability Index: 0.0
MHC-II DRB1*15:01 [7]
  Binding Score: 3379.6%
MHC-II DRB1*04:01 [8]
  Binding Score: 61.3%
MHC-II DRB1*15:03 [9]
  Binding Score: 103.9%
MHC-II DRB1*03:01 [10]
  Binding Score: 1.0%
MHC-II DRB1*11:01 [11]
  Binding Score: 150.5%
MHC-II DRB1*07:01 [12]
  Binding Score: 0.0%

## IFNPPIIARYIRLHP [synthetic wild type FVIII 15 mer peptide]
MHC-II DRB1*15:01 [1]
  Stability Index: 1469.4
MHC-II DRB1*04:01 [2]
  Stability Index: 0.0
MHC-II DRB1*15:03 [3]
  Stability Index: 4.5
MHC-II DRB1*03:01 [4]
  Stability Index: 0.0
MHC-II DRB1*11:01 [5]
  Stability Index: 6.3
MHC-II DRB1*07:01 [6]
  Stability Index: 0.0
MHC-II DRB1*15:01 [7]
  Binding Score: 1224.5%
MHC-II DRB1*04:01 [8]
  Binding Score: 1.7%
MHC-II DRB1*15:03 [9]
  Binding Score: 3.8%
MHC-II DRB1*03:01 [10]
  Binding Score: 0.7%
MHC-II DRB1*11:01 [11]
  Binding Score: 61.5%
MHC-II DRB1*07:01 [12]
  Binding Score: 0.0%

## IIMYSLDGKKWQTYR [synthetic wild type FVIII 15 mer peptide]
MHC-II DRB1*15:01 [1]
  Stability Index: 2223.6
MHC-II DRB1*04:01 [2]
  Stability Index: 0.7
MHC-II DRB1*15:03 [3]
  Stability Index: 57.3
MHC-II DRB1*03:01 [4]
  Stability Index: 1.7
MHC-II DRB1*11:01 [5]
  Stability Index: 1.4
MHC-II DRB1*07:01 [6]
  Stability Index: 0.1
MHC-II DRB1*15:01 [7]
  Binding Score: 1853.0%
MHC-II DRB1*04:01 [8]
  Binding Score: 8.3%
MHC-II DRB1*15:03 [9]
  Binding Score: 47.8%
MHC-II DRB1*03:01 [10]
  Binding Score: 6.0%
MHC-II DRB1*11:01 [11]
  Binding Score: 23.3%
MHC-II DRB1*07:01 [12]
  Binding Score: 0.0%

## KMVYEDTLTLFPFSG [synthetic wild type FVIII 15 mer peptide]
MHC-II DRB1*15:01 [1]
  Stability Index: 0.2
MHC-II DRB1*04:01 [2]
  Stability Index: 8.3
MHC-II DRB1*15:03 [3]
  Stability Index: 0.0
MHC-II DRB1*03:01 [4]
  Stability Index: 21.0
MHC-II DRB1*11:01 [5]
  Stability Index: 0.0
MHC-II DRB1*07:01 [6]
  Stability Index: 0.0
MHC-II DRB1*15:01 [7]
  Binding Score: 3.0%
MHC-II DRB1*04:01 [8]
  Binding Score: 29.7%
MHC-II DRB1*15:03 [9]
  Binding Score: 0.0%
MHC-II DRB1*03:01 [10]
  Binding Score: 57.6%
MHC-II DRB1*11:01 [11]
  Binding Score: 11.7%
MHC-II DRB1*07:01 [12]
  Binding Score: 0.0%

## KTDPWFAHRTPMPKI [synthetic wild type FVIII 15 mer peptide, region of ns-SNP R776G]
MHC-II DRB1*15:01 [1]
  Stability Index: 0.1
MHC-II DRB1*04:01 [2]
  Stability Index: 0.5
MHC-II DRB1*15:03 [3]
  Stability Index: 0.0
MHC-II DRB1*03:01 [4]
  Stability Index: 0.0
MHC-II DRB1*11:01 [5]
  Stability Index: 0.1
MHC-II DRB1*07:01 [6]
  Stability Index: 1.2
MHC-II DRB1*15:01 [7]
  Binding Score: 0.1%
MHC-II DRB1*04:01 [8]
  Binding Score: 8.2%
MHC-II DRB1*15:03 [9]
  Binding Score: 0.2%
MHC-II DRB1*03:01 [10]
  Binding Score: 0.0%
MHC-II DRB1*11:01 [11]
  Binding Score: 0.5%
MHC-II DRB1*07:01 [12]
  Binding Score: 4.0%

## LFLLSTRQNVEGSYD [synthetic wild type FVIII 15 mer peptide, region of ns-SNP D1241E]
MHC-II DRB1*15:01 [1]
  Stability Index: 0.1
MHC-II DRB1*04:01 [2]
  Stability Index: 2.8
MHC-II DRB1*15:03 [3]
  Stability Index: 0.0
MHC-II DRB1*03:01 [4]
  Stability Index: 17.5
MHC-II DRB1*11:01 [5]
  Stability Index: 23.6
MHC-II DRB1*07:01 [6]
  Stability Index: 0.3
MHC-II DRB1*15:01 [7]
  Binding Score: 1.0%
MHC-II DRB1*04:01 [8]
  Binding Score: 17.9%
MHC-II DRB1*15:03 [9]
  Binding Score: 0.2%
MHC-II DRB1*03:01 [10]
  Binding Score: 30.5%
MHC-II DRB1*11:01 [11]
  Binding Score: 92.0%
MHC-II DRB1*07:01 [12]
  Binding Score: 0.3%

Source: PMC3656107, “Polymorphisms in the F8 Gene and MHC-II Variants as Risk Factors for the Development of Inhibitory Anti-Factor VIII Antibodies during the Treatment of Hemophilia A: A Computational Assessment” (PLoS Computational Biology, 2013)
